Assay in all cases: NCI-60 cell line screen, 48 h
Experiment [1] relates to SK-MEL-28 melanoma.
The subject of experiment [2] is HOP-62 NSCLC.
For experiment [3], the system named is ACHN renal.
The subject of experiment [4] is NCI-H23 lung.
The subject of experiment [5] is SF-539 CNS.
Experiment [6] deals with EKVX NSCLC.
The subject of experiment [7] is LXFL 529 NSCLC.
Experiment [8] has as its system DLD-1 colon.
The test system of experiment [9] is BT-549 breast.
In experiment [10] the test system is PC-3 prostate.

Molecules are shown by their SMILES.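 1) Cells in 96-well plates. 2) Compound, 48 h, 5 concentrations. 3) Linear interpolation between surrounding doses. 4) Unreached endpoint = highest concentration. GI50 marks 50% less growth. TGI: total growth inhibition.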 Bounds are passed on as bounds.

Turning to `COc1ccc(C(=C(C#N)C#N)c2ccc(OC)cc2)cc1`, the TGI in experiment [1], in experiment [2], in experiment [3], in experiment [4], in [5] and in experiment [6] was more than 100 µM throughout. This compound showed a TGI in experiment [7] of more than 100 µM.
For the compound `CN1CCN2c3ccccc3CC(C#N)(C#N)C2C1` (centres undefined), the TGI in experiment [1], in [8], in experiment [3], in experiment [4], in [5] and in experiment [6] was more than 100 µM each time. In addition, the TGI in [7] was more than 100 µM.
With `CC(=O)O[C@H]1CC[C@@]2(C)C(=CC[C@@H]3C2CC[C@]2(C)C(=O)NC(=O)CC32)C1` (some centres undefined), the TGI in experiment [1], in [2], in [8], in experiment [3], in experiment [4] and in [5] was more than 100 µM each time. Moreover, the TGI in experiment [6] and in experiment [7] was more than 100 µM in each case.
Regarding `O=C(/C=C/c1ccc[nH]1)c1ccccc1`, the TGI in experiment [1], in experiment [2], in [8], in [3], in experiment [4] and in experiment [5] was more than 100 µM in each case. In experiment [7], the TGI was more than 100 µM.
Turning to `CN1C(=O)C(C)(C)NS1(=O)=O`, the TGI in experiment [1], in experiment [2], in experiment [8], in [3], in experiment [4] and in experiment [5] was more than 100 µM each time. The TGI in experiment [6] and in [7] was more than 100 µM throughout.
Take `CCOc1cccc2sc(N)nc12`: the TGI in experiment [1], in [2], in [8], in [3], in experiment [4] and in experiment [5] was more than 100 µM in each case. In addition, the TGI in experiment [6] and in experiment [7] was more than 100 µM in each case.
With `C=C(c1ccccc1)[C@@]1(O)CCCC[C@H]1NC(c1ccccc1)c1ccccc1`, the TGI amounted to 30.2 µM in [1]; 31 µM in [2]; 31.9 µM in experiment [8]; 23.9 µM in experiment [3]; 28.7 µM in experiment [4]; 32.7 µM in experiment [5]. For the same compound, the figures for the TGI in [6] and in experiment [7] were 43.7 µM and 23.9 µM, respectively.
Consider `COc1cccc(-c2cc(C(=O)Nc3ccc(Cl)cc3)nc(N)n2)c1`, for which the TGI in [1], in [2], in [8], in [3], in experiment [4] and in [5] was more than 100 µM in each case. Also, the TGI in experiment [6] and in experiment [7] was more than 100 µM each time.
Take `O=C1C[C@@H]2[C@@H](C=CC23CC3)N1O`: the TGI in experiment [1], in [2], in [8], in [4], in experiment [5] and in experiment [6] was more than 100 µM each time. The compound also gave a TGI in experiment [7] of more than 100 µM.
On to `CCOC(=O)C1Nc2ccc([N+](=O)[O-])cc2[C@H]2OCC[C@@H]12` (some centres undefined), for which the TGI in experiment [1], in experiment [2], in experiment [8], in experiment [3], in [4] and in experiment [5] was more than 100 µM in each case. The TGI in experiment [6] was more than 100 µM.
For `CCCCCCN(CCCCCC)C1=CC(=O)C(=O)c2ccccc21`, the TGI was 31.8 µM in experiment [1]; 32.8 µM in experiment [2]; 32.3 µM in experiment [8]; 30.9 µM in [3]; 27.8 µM in experiment [4]; 30.9 µM in [5]. Besides, the TGI in experiment [6] was 27.7 µM; in [7] it was 33.4 µM.
As for `CN(C(=N)c1ccccc1)c1ccccc1`, the TGI in [1], in experiment [8], in experiment [4], in [5], in experiment [6] and in experiment [7] was more than 100 µM each time.
Regarding `CC12CCC(=O)N1c1cc([N+](=O)[O-])ccc1N2` (centres undefined), the TGI in [1], in [2], in experiment [8], in [3], in experiment [4] and in experiment [5] was more than 100 µM each time. Moreover, the TGI in experiment [6] and in [7] was more than 100 µM throughout.
For the compound `[O-]c1ccccc1[C-]=Nc1ccccc1O.[O-]c1ccccc1[C-]=Nc1ccccc1O.[O]=[U]=[O]`, the GI50 in [1] was 14 µM; in experiment [2], 19.9 µM; in experiment [8], 2.23 µM; in experiment [3], 9.09 µM; in [4] it was 11.3 µM; in [6] it was 24 µM. Moreover, the GI50 in experiment [7] is 4.11 µM. For the same compound, the TGI in experiment [1] is 35.9 µM; in experiment [2] it was 57.4 µM; in experiment [8], 41 µM; in experiment [3], 26.7 µM; in experiment [4], 76.5 µM; in [6], 62.4 µM. Further, in experiment [7], the TGI is 34.8 µM.
As to `COC(=O)c1ccc(CS(=O)(=O)c2ccccc2)cc1`, the TGI in experiment [1], in experiment [2], in experiment [8], in [3], in [4] and in experiment [5] was more than 100 µM in each case. The TGI in experiment [6] and in experiment [7] was more than 100 µM throughout.
As to `Clc1cc2nc[nH]c2cc1Cl`, the TGI in experiment [1], in experiment [2], in [8], in experiment [3], in experiment [4] and in [5] was more than 100 µM throughout. The TGI in [6] and in [7] was more than 100 µM throughout.
For the compound `CCOC(=O)NC(=O)c1cn(CC(=O)NCC(=O)NCC(=O)N2CCN(CCn3c(C)nc(C(N)=O)c3N)CC2)c(=O)[nH]c1=O`, the TGI in [1], in experiment [2], in [8], in experiment [3], in experiment [4] and in experiment [5] was more than 100 µM each time. The same compound returned a TGI in [7] of more than 100 µM.
On to `O=c1/c(=C/c2ccccc2O)sc2nc3ccccc3n12`, for which the TGI in experiment [1] was 71.6 µM; in experiment [8] it was more than 100 µM; in experiment [3] it was more than 100 µM; in [4], more than 100 µM; in experiment [5] it was more than 100 µM; in experiment [6] it was 82 µM. In experiment [7], this compound yielded a TGI of more than 100 µM.
Take `Clc1cc(Cl)cc(C2SCc3nc4ccccc4n32)c1` (centres undefined): the TGI amounted to 36.1 µM in experiment [1]; 69 µM in experiment [3]; 45.4 µM in experiment [4]; 23.9 µM in experiment [5]; 70.8 µM in experiment [6]; 36.3 µM in experiment [7].
Turning to `OCC(O)C(O)C(O)c1nn[nH]n1` (centres undefined), the TGI in [2], in experiment [8], in experiment [3], in [4], in [5] and in [6] was more than 100 µM each time. Also, the TGI in experiment [7] was more than 100 µM.
Regarding `CC(C)(C)c1cc(O)c2c(c1O)C(=O)CCC2`, the TGI was more than 100 µM in experiment [1]; 91.9 µM in [2]; more than 100 µM in [8]; more than 100 µM in experiment [3]; more than 100 µM in [4]; more than 100 µM in experiment [5]. The TGI in experiment [6] and in [7] was more than 100 µM in each case.
Regarding `CO[C@H](C(=O)O[C@H]1C(=O)N2CCC3CCC1C32C)c1ccccc1` (some centres undefined), the TGI in [1], in experiment [2], in experiment [8], in experiment [3], in experiment [4] and in [5] was more than 100 µM in each case. In addition, the TGI in [6] and in [7] was more than 100 µM in each case.
Regarding `O=C1/C(=N/N=C(c2ccccc2)c2ccccc2)c2ccccc2-c2ccccc21`, the TGI in [1], in experiment [2], in experiment [3], in experiment [4], in experiment [9] and in experiment [5] was more than 100 µM each time. Further, the TGI in experiment [10] and in experiment [6] was more than 100 µM in each case.
With `COc1ccc(C2CC(c3ccc4ccccc4c3)=NN2/C=C2\SC(=S)N(NC(=O)Cc3ccccc3Nc3c(Cl)cccc3Cl)C2=O)cc1` (centres undefined), the GI50 is 4.45 µM in [1]; 0.958 µM in experiment [2]; 0.684 µM in experiment [3]; 0.793 µM in experiment [4]; 0.681 µM in [9]; 0.282 µM in experiment [5]. Further, the values for the GI50 in experiment [10] and in experiment [6] were 0.714 µM and 1.45 µM, respectively. Moreover, the TGI in experiment [1] was more than 50 µM; in experiment [2] it was more than 49.9 µM; in experiment [3], more than 71.5 µM; in [4], more than 46.8 µM; in experiment [9], more than 43 µM; in experiment [5], 1.12 µM. Moreover, the TGI in experiment [10] was more than 54 µM; in [6], more than 61.5 µM.
As to `Oc1ccccc1/C=N/Nc1nc2ccccc2s1`, the GI50 in [1] is 89 µM; in experiment [2], 5.56 µM; in [3], 6.14 µM; in experiment [4], 23.3 µM; in experiment [9], more than 100 µM; in experiment [5], 4.67 µM. The GI50 is 11 µM in [10] and 8.73 µM in experiment [6]. Also, the TGI in [1], in experiment [2], in [3], in experiment [4], in experiment [9] and in experiment [5] was more than 100 µM in each case. In addition, the TGI in experiment [10] and in experiment [6] was more than 100 µM each time.
With `COc1cc(/C=C/C(=O)c2ccc(F)cc2)ccc1OCCCCOc1cc2c(cc1OC)C(=O)N1CCCC1C=N2` (centres undefined), the GI50 in experiment [1] is 15.3 µM; in experiment [2] it was 0.952 µM; in experiment [3], 1.07 µM; in experiment [4] it was 1.47 µM; in experiment [9] it was 0.855 µM; in [5], 0.641 µM. Besides, the GI50 in [10] was 0.923 µM; in [6], 4.05 µM. Besides, the TGI is more than 100 µM in experiment [1]; 12.5 µM in [2]; more than 20.5 µM in [3]; more than 23.5 µM in experiment [4]; 1.62 µM in experiment [5]; 12.8 µM in experiment [10]. Also, the TGI in [6] was more than 34.9 µM.
In the case of `O=c1[nH]ccc2nc(N3CCC(O)CC3)nc(Nc3ccc(N4CCOCC4)cc3)c12`, the GI50 in experiment [1] is more than 100 µM; in experiment [2] it was 5.32 µM; in experiment [3], 0.797 µM; in experiment [4], 8.71 µM; in experiment [9], 2.31 µM; in experiment [5] it was 2.85 µM. Also, the GI50 in experiment [10] was more than 100 µM; in experiment [6], more than 38.3 µM. Further, the TGI in experiment [1] was more than 100 µM; in experiment [2] it was more than 100 µM; in experiment [3] it was more than 100 µM; in experiment [4] it was more than 100 µM; in [9], more than 46.5 µM; in experiment [5] it was 11.2 µM. In addition, the TGI in experiment [10] and in experiment [6] was more than 100 µM each time.
Take `O=C1C2c3[nH]c4ccccc4c3C3CCC(c4ccccc4)CC3C2C(=O)N1c1ccccc1` (centres undefined): the TGI in experiment [1], in [8], in [3], in experiment [4], in experiment [5] and in experiment [6] was more than 100 µM throughout. This compound also returned a TGI in [7] of more than 100 µM.
For the compound `Cc1cc(C)nc(NS(=O)(=O)c2ccc(Nc3nc4nc(NCc5ccccc5)nc(-c5ccc(O)cc5)c4c(=O)[nH]3)cc2)n1`, the GI50 in experiment [1] is 13.4 µM; in experiment [2] it was more than 100 µM; in [3], 29.6 µM; in [4] it was 79.7 µM; in experiment [9] it was 10.8 µM; in experiment [5] it was more than 100 µM. The GI50 in [10] is 19.8 µM; in [6], 35.1 µM. For the same compound, the TGI in experiment [1] was more than 100 µM; in experiment [2], more than 100 µM; in experiment [3], more than 100 µM; in [4], more than 100 µM; in experiment [9] it was 52.9 µM; in experiment [5] it was more than 100 µM. For the same compound, the TGI in [10] and in experiment [6] was more than 100 µM in each case.

(Values after PubChem BioAssay (NCI).)
